According to patent US20070117770A1, “Human ribosomal DNA (rDNA) and ribosomal RNA (rRNA) nucleic acids and uses thereof” (Cylene Pharmaceuticals, Inc., priority 2005, published 2007):

Columns and labels:
Test in all cases: Protein kinase inhibition assay
PAR-1Bα(h) = PAR-1Bα(h) (Homo sapiens, UniProt Q7KZI7); type: biochemical; settings: read-out: percent residual activity of PAR-1Bα(h)
Experimental: (§1) Certain compounds were tested for activity in protein kinase inhibition assays. All substrates were dissolved and diluted to working stocks in de-ionized water, apart from histone H1 (10× working stock in 20 mM MOPS pH 7.0), PDKtide (10× working stock in 50 mM Tris pH 7.0) ATF2 (which is typically stored at a 20× working stock in 50 mM Tris pH 7.5, 150 mM NaCl, 0.1 mM EGTA, 0.03% Brij-35, 50% glycerol, 1 mM benzamidine, 0.2 mM PMSF and 0.1% R-mercaptoethanol), KKLNRTLSFAEPG (SEQ ID NO:203) and RRRLSFAEPG (SEQ ID NO:204) (50 mM HEPES pH 7.4) and GGEEEEYFELVKKKK (SEQ ID NO:205) (20 mM MOPS pH 7.0). All kinases were pre-diluted to a 10× working concentration prior to addition into the assay. The composition of the dilution buffer for each kinase is detailed below.
In a final reaction volume of 25 μl, PAR-1Bα (h) (5-10 mU) is incubated with 8 mM MOPS pH 7.0, 0.2 mM EDTA, 100 μM […] (SEQ ID NO:213), 10 mM MgAcetate and [gamma-33P-ATP] (specific activity approx. 500 cpm/pmol, concentration as required). The reaction is initiated by the addition of the MgATP mix. After incubation for 40 minutes at room temperature, the reaction is stopped by the addition of 5 μl of a 3% phosphoric acid solution. 10 pi of the reaction is then spotted onto a P30 filtermat and washed three times for 5 minutes in 75 mM phosphoric acid and once in methanol prior to drying and scintillation counting.

Tie2(h) = Tie2(h) (Homo sapiens, UniProt Q02763); type: biochemical; settings: for remaining activity at 2.5 µM: read-out: percent residual activity of Tie2(h)
Sequence of Tie2(h) (Q02763 23-1124): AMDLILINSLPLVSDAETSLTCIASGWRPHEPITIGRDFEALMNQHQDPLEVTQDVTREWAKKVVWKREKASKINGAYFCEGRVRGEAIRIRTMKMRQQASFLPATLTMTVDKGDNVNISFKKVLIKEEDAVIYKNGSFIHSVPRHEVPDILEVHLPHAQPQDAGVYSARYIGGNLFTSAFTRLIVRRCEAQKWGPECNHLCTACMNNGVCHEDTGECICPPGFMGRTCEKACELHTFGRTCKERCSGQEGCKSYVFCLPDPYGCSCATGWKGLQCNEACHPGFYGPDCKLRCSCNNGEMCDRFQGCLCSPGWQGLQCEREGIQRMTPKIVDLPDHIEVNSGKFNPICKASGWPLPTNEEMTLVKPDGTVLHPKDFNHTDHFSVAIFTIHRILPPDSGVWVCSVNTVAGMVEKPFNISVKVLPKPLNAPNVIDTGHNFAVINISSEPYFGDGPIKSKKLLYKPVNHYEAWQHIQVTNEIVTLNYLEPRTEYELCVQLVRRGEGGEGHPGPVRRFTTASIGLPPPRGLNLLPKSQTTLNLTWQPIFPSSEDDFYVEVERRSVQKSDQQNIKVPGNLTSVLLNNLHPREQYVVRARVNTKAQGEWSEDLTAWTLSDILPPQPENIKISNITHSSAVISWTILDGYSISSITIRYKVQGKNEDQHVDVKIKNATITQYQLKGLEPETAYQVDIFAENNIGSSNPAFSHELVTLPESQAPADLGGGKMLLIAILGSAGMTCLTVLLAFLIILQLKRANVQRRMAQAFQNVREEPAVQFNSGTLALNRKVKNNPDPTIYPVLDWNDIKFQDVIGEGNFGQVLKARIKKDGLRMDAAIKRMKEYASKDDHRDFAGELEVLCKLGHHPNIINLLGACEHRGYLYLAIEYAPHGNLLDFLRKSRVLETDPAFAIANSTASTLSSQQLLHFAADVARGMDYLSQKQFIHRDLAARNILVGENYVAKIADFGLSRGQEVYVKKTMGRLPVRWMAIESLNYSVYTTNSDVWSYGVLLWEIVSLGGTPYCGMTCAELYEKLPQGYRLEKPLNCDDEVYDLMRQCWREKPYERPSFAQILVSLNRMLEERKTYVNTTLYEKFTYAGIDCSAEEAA
Experimental: as §1
In a final reaction volume of 25 μl, Tie2 (h) (5-10 mU) is incubated with 8 mM MOPS pH 7.0, 0.2 mM EDTA, 0.5 mM MnCl2, 0.1 mg/ml poly(Glu, Tyr) 4:1, 10 mM MgAcetate and [gamma-33P-ATP] (specific activity approx. 500 cpm/pmol, concentration as required). The reaction is initiated by the addition of the MgATP mix. After incubation for 40 minutes at room temperature, the reaction is stopped by the addition of 5 μl of a 3% phosphoric acid solution. 10 μl of the reaction is then spotted onto a Filtermat A and washed three times for 5 minutes in 75 mM phosphoric acid and once in methanol prior to drying and scintillation counting.

CaMKIV(h) = CaMKIV(h) (Homo sapiens, UniProt Q16566); type: biochemical; settings: read-out: percent residual activity of CaMKIV(h)
Experimental: as §1
(§2) In a final reaction volume of 25 μl, CaMKIV (h) (5-10 mU) is incubated with 40 mM HEPES pH 7.4, 5 mM CaCl2, 30 μg/ml calmodulin, 30 μM KKLNRTLSVA (SEQ ID NO:212), 10 mM MgAcetate and [gamma-33P-ATP] (specific activity approx. 500 cpm/pmol, concentration as required). The reaction is initiated by the addition of the MgATP mix. After incubation for 40 minutes at room temperature, the reaction is stopped by the addition of 5 μl of a 3% phosphoric acid solution. […]

CaMKII(r) = type: biochemical, rat; settings: 2.5 μM
Experimental: as §1
as §2, with “CaMKII (r)” for “CaMKIV (h)”

SAPK4(h) = SAPK4(h) (Homo sapiens, UniProt O15264); type: biochemical; settings: read-out: percent residual activity of SAPK4(h)
Sequence of SAPK4(h) (O15264 whole entry): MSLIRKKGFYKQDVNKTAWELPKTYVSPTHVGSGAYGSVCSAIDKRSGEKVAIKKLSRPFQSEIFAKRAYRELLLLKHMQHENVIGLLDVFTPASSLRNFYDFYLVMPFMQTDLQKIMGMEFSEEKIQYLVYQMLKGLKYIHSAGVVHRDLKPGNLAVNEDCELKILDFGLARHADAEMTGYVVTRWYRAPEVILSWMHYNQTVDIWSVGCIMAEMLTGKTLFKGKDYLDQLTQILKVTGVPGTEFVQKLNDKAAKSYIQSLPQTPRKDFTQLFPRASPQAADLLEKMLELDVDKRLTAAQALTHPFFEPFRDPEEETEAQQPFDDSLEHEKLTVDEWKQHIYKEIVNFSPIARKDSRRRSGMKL
Experimental: as §1
(§3) In a final reaction volume of 25 μl, SAPK4 (h) (5-10 mU) is incubated with 25 mM Tris pH 7.5, 0.02 mM EGTA, 0.33 mg/ml myelin basic protein, 10 mM MgAcetate and [gamma-33P-ATP] (specific activity approx. 500 cpm/pmol, concentration as required). The reaction is initiated by the addition of the MgATP mix. After incubation for 40 minutes at room temperature, the reaction is stopped by the addition of 5 μl of a 3% phosphoric acid solution. 10 μl of the reaction is then spotted onto a P30 filtermat and washed three times for 5 minutes in 75 mM phosphoric acid and once in methanol prior to drying and scintillation counting.

IRAK4(h) = IRAK4(h) (Homo sapiens, UniProt Q9NWZ3); type: biochemical; settings: read-out: percent residual activity of IRAK4(h)
Sequence of IRAK4(h) (Q9NWZ3 whole entry): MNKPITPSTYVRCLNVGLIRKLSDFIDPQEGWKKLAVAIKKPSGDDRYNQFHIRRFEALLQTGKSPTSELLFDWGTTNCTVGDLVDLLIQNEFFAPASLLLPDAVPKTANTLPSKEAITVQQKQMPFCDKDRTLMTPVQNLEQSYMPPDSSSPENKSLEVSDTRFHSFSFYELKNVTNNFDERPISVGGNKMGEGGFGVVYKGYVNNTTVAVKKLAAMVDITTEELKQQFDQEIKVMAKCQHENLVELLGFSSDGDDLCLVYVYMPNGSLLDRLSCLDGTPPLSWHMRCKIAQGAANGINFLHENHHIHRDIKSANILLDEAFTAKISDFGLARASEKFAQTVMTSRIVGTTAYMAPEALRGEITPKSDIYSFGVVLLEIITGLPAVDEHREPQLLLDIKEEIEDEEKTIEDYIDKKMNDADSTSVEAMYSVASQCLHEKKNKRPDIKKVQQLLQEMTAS
Experimental: as §1
as §3, with “μl, IRAK4” for “μl, SAPK4”, “with 8” for “with 25”, “mM MOPS” for “mM Tris”, “pH 7.0, 0.2” for “pH 7.5, 0.02”, “mM EDTA,” for “mM EGTA,”

Sequence of PAR-1Bα(h) (Q7KZI7 1-725 isoform Q7KZI7-4): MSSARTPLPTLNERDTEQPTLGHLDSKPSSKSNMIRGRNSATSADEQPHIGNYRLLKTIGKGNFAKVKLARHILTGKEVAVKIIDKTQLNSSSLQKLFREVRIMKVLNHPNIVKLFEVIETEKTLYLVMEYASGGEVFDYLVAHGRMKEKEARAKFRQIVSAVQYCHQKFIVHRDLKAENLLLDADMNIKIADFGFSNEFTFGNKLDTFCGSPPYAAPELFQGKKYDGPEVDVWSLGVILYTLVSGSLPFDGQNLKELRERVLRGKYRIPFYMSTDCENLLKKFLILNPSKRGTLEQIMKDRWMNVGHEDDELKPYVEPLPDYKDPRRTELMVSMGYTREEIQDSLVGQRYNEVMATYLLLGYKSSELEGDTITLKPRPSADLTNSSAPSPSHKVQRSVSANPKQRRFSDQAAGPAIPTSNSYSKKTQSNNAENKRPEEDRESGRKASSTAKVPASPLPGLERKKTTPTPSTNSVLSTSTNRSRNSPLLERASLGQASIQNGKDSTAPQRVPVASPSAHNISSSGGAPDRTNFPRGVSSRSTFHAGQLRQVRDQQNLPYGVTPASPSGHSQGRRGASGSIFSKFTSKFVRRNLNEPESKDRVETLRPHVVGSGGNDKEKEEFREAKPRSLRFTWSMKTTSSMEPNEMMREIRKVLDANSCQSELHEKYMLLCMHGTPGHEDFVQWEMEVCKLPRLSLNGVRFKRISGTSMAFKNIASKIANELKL

| Structure (SMILES) | remaining activity at 2.5 µM (PAR-1Bα(h)) [%] | inhibition at 2.5 µM (Tie2(h)) [%] | remaining activity at 2.5 µM (Tie2(h)) [%] | remaining activity at 2.5 µM (CaMKIV(h)) [%] | percent residual activity of CaMKII(r) (CaMKII(r)) [%] | remaining activity at 2.5 µM (SAPK4(h)) [%] | remaining activity at 2.5 µM (IRAK4(h)) [%] |
| --- | --- | --- | --- | --- | --- | --- | --- |
| CN1CCCC1CCNC(=O)c1cn2c3c(c(N4CCC(c5cnccn5)C4)c(F)cc3c1=O)Oc1cc3ccccc3cc1-2 (stereo not shown) [Compound A-1] | 88 | > 80 | 13 | 124 | 107 | 31 | 98 |
| CC(=O)N1CCN(c2ccc3c(=O)c(C(=O)NCCN4CCCC4)c4n(C)c5ccccc5n4c3n2)CC1 [Compound B-1] | 100 | – | 115 | 122 | 113 | 105 | 107 |
